The source of these data is PMC8659069, “Optimization of 4-Anilinoquinolines as Dengue Virus Inhibitors” (Molecules, 2021).

The test system of one data set is DENV2. In words: microbe, parasite or virus in culture. It is filed as cell-based, dengue virus (DENV2, New Guinea C strain). The note with it: Dengue virus, DENV2, Huh-7, 48 h.
A further data set concerns VEEV (TC-83). As to the kind of experiment: microbe, parasite or virus in culture. The class given is cell-based, Venezuelan Equine Encephalitis virus. The note with it: Venezuelan equine encephalitis virus, U-87 MG, 18 h.
The nature of data set [1]: in vitro. The conditions noted are these: human.
The nature of data set [2]: in vitro. The conditions noted are these: human. This is another data set of the same source.
Data set [3] is described as follows: in vitro. The conditions noted are these: African green monkey.
For the next data set, the system named is DENV. Details: method as in PMID 28240606, PMID 22448770, PMID 26039671, PMID 19223625, PMID 32631507. The note with it: serotype 2; erlotinib in Huh7 (Figure 2); ref [14],[29],[30],[31],[32],[33]; read-out: DENV EC50 (previously reported); cited from earlier work.

Each structure is given as a SMILES string.

Compound `Oc1cccc(Nc2ccnc3ccc(Br)cc23)c1` [Compound 12, 3-((6-bromoquinolin-4-yl)amino)phenol] came in with a melting point above 300 °C. Besides, in the data set on DENV2 (read-out: DENV Inhibition EC50), the concentration giving a half-maximal response (EC50) is 630 nM. In addition, the EC90 in the data set with DENV2 (read-out: DENV Inhibition EC90) was determined as 3.2 µM. Further, the EC50 in the data set on VEEV (TC-83) (read-out: VEEV Inhibition EC50) is 9.9 µM. The concentration for an effect of 90% (EC90) in the data set with VEEV (TC-83) (read-out: VEEV Inhibition EC90) was above 10 µM. This compound displayed a CC50 in “in vitro [1]” above 10 µM. Moreover, the CC50 in the data set “in vitro [2]” is above 10 µM. In addition, the CC50 in the data set “in vitro [3]” is above 10 µM.
As for `C#Cc1cccc(Nc2ncnc3cc(OCCOC)c(OCCOC)cc23)c1` [Erlotinib, erlotinib], the EC50 in the data set on DENV is 6500 nM.
`COc1cc(Nc2c(C#N)cnc3ccc(I)cc23)cc(OC)c1OC` [Compound 3]: in the data set on DENV, the 50% effective concentration (EC50) is 79 nM.
Consider `CC(C)(C)Oc1cccc2nc(N)nc(N)c12` [Compound 1], for which, in the data set with DENV, the EC50 is 2.8 nM.
On to `Clc1ccc(-c2ccc(-c3nc(NCc4cccnc4)nc4ccccc34)s2)cc1` [Compound 2], for which the concentration for a half-maximal effect (EC50) with DENV is 70 nM.

By EC50 is commonly meant the concentration at which the effect is half-maximal. A word on the EC90: it is the concentration at which the effect reaches the 90% level. In general, melting point refers to the temperature, or range, at which the solid turns liquid.
